Data from patent US20260242759A1, “GQ/11 Protein Peptidomimetics” (Vrije Universiteit Brussel, priority 2022, published 2026).
Non-standard residues stand in square brackets, D forms with d. Residues, ends and D or L forms follow the SMILES beside them. Cha = N[C@@H](CC1CCCCC1)C(=O)O

Tests used:
[1] = molecular target: T1, human ghrelin receptor (GHSR) (Homo sapiens, UniProt Q92847, C146S/C304S); test: Bimane fluorescence assay on purified ghrelin receptor in nanodiscs; assay type: biochemical; conditions: bimane labeled GHSR, in presence of JMV1843
T1 construct: integrin α5 fragment (N); polyhistidine tag (C); made in house; host or cells: E. coli BL21(DE3)
T1 sequence (Q92847 whole entry C146S/C304S, the tested form may be a part): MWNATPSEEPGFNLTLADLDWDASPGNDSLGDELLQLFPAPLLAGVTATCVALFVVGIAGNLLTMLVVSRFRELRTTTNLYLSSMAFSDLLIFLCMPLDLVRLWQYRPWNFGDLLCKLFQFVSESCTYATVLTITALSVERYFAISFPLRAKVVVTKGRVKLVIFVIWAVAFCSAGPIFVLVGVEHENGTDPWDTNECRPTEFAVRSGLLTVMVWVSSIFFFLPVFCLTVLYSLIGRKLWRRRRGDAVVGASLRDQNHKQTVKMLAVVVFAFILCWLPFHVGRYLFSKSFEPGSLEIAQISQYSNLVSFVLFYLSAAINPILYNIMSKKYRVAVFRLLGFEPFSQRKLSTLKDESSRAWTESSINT
Description: Another assay that can be used to analyse conformational changes associated with GPCR activation and/or to identify G protein peptidomimetics that are capable of stabilizing a GPCR in an active conformational state is the bimane fluorescence assay or bimane assay. This assay works through labelling of a cysteine residue in the lower part of the TM6 of a GPCR with a bimane-fluorophore (monobromobimane (MB)). Binding of an agonist to the GPCR causes a conformational change and outward movement of TM6 that places bimane in a more solved-exposed position, which will alter its maximum emission wavelength. In particular, increasing concentrations of agonist result in a concentration-dependent red-shift of the maximum emission wavelength (λmax) of the bimane-fluorophore probe. In the presence of a G protein or an active state stabilizing G protein peptidomimetic λmax may increase further. For example, a bimane labelled ghrelin receptor (such as a cysmin mutant (i.e. mutant with minimal cysteines) of human ghrelin receptor (also referred to herein as growth hormone secretagogue receptor (GHSR) (e.g. the mutant as described in Damian et al. (2021) wherein monobromobimane (MB) fluorescent probe is attached to Cys^255) and ghrelin receptor agonist JMV1843 may be used.
The bimane fluorescence assays on the ghrelin receptor were performed as described in Damian et al. (2021. Nat. Commun. 12:1-15). Briefly, E. coli bacteria (BL21(DE3)) were transformed with a vector encoding the human ghrelin receptor with an integrin α5 fragment at the N-terminus and a polyhistidine tag at the C-terminus. The receptors were then purified and reconstituted into lipidated nanodiscs. The monobromobimane labeling was performed by incubating the receptors, with a unique reactive cysteine at position 255, during 16 h in the dark at 4° C. and in the presence of 0.1 mM tris(2-carboxyethyl)phosphine (TCEO). The reaction was terminated with 5 mM L-cysteine and unreacted monobromobimane was removed using a Zeba™ Spin desalting column.
For the fluorescence assay, the labeled receptor was incubated during 2 h at 20° C. (0.2 μM final concentration), in the absence or presence of the full agonist JMV1843 (20 μM) and in the absence or presence of either the peptidomimetics at varying molar ratios or the purified Gαqβ1γ2 heterotrimer, at a 1:5 receptor-to-G protein molar ratio. Afterwards, the fluorescence experiments were performed on a Horiba Fluoromax-4 TCSP spectrofluorimeter. For each scan, the excitation wavelength (λexc) was set at 380 nm and emission was collected between 440 nm and 520 nm.
The bimane assay is used on GPCRs to detect conformational changes associated with receptor activation. This assay functions through the labelling of a cysteine, which is one of the least frequently occurring amino acids in proteins. Additionally, the majority of the extracellular cysteines form disulfide bonds, which, together with the transmembrane cysteines, are inert to thiol-reactive reagents. Additionally, some of the intracellular cysteines in the C-terminal tail may carry post-translational modifications which reduces the number of reactive cysteines in the receptor (Tian et al. 2017. Chem. Rev. 117:186-245). For GHSR, the remaining reactive cysteine residues C146 (ICL2) and C304 (extracellular end of TM7) were replaced by serines (cysmin mutant, i.e. mutant with minimal cysteines), to allow the monobromobimane (MB) fluorescent probe to be specifically attached to Cys255 in the lower part of TM6 (FIG. 5a) (Damian et al. 2021). In this assay, bimane is chosen because of its small size and sensitivity to the polarity of its environment (Yao et al. 2006. Nat Chem. Biol. 2:417-422). Binding of a ligand to the receptor, causes a conformational change and outward movement of TM6 that places bimane in a more solvent-exposed position, which alters its maximum emission wavelength. […]

[2] = Solubility in aqueous buffer; conditions: aqueous buffer for RLA

Compound	conformational change in the receptor [1]	solubility in aqueous buffer [2]
Ac-FNDCKDIILQMNLREYNLV-OH [SBL-GQ-07]	not able to induce a conformational change	not soluble
CC[C@H](C)[C@H](NC(=O)[C@H](CC(=O)O)NC(=O)[C@H](CCCCN)NC(=O)[C@H](CS)NC(=O)[C@H](CC(=O)O)NC(=O)[C@H](CC(N)=O)NC(=O)[C@H](Cc1ccccc1)NC(C)=O)C(=O)N[C@H](C(=O)N[C@@H](CC(C)C)C(=O)N[C@@H](CCC(N)=O)C(=O)N[C@@H](CCSC)C(=O)N[C@@H](CC(N)=O)C(=O)N[C@@H](CC(C)C)C(=O)N[C@@H](CCCNC(=N)N)C(=O)N[C@@H](CCC(=O)O)C(=O)N[C@@H](Cc1ccc(O)cc1)C(=O)N[C@@H](CC(N)=O)C(=O)N[C@@H](CC1CCCCC1)C(=O)N[C@H](C(=O)O)C(C)C)[C@@H](C)CC [SBL-GQ-09] (Ac-FNDCKDIILQMNLREYN[Cha]V-OH)	not able to induce a conformational change	not soluble
